Consider 4 molecules from patent US20080057010A1, “METHOD FOR SKIN CARE” (NULIV SCIENCE LTD., priority 2006, published 2008).

The experiment deals with collagen I. As to the kind of experiment: Collagen I expression and secretion in human HDF cells (western blot). The format is cell-based. Conditions: relative to 0 = 1.00. As for the experimental part: Primary human dermal fibroblasts cells (HDF) were purchased from Cascade Biologics (Portland, Oreg., USA) and cultured in medium 106 supplemented with 10% fetal bovine serum (FBS), 100 IU/mL penicillin, 100 μg/mL of streptomycin. The cells from passages 4 to 10 were used for this study. Culture medium was replaced every other day. After confluence, the cells were subcultured following trypsinization. For subcultures cells were harvested after brief treatment with 0.1% trypsin/EDTA solution and seeded at a dilution of 1:10. The cells were seeded at 1×10^5 cells in 6-well culture plate for 24 h before treated with astragalosides or crude extracts, such as butanol fraction and water insoluble fraction of Astragalus membranaceus for the indicated time periods. Control cultures were maintained in medium supplemented with vehicle (dimethyl sulfoxide, DMSO, 0.1%). No growth and differentiation effects of DMSO were observed under these culture conditions.
The cells were treated with pure compounds such as astragaloside I (AS 1), astragaloside II (AS2), astragaloside III (AS3), astragaloside IV (AS4), astragaloside VI (AS6), isoastragaloside I (isoAS1), isoastragaloside II (isoAS2), and cycloastragenol 6-O-β-D-glucopyranose (AA) at concentrations of 0-10 μM. Alternatively, the cells were also treated with the crude extracts, such as butanol fraction and water insoluble fraction of Astragalus membranaceus at concentrations of 0, 1, 10, and 40 μg/mL. The cells were treated with the indicated compounds or the extracts for 24 h before harvested for analysis of collagen I and III expressed in the whole cell extract or secreted into the culture medium.
Western blot analysis was carried out on both of cultured medium and cell lysates. The cells were plated on 6-cm dishes at a density of 1×10^6 cells/dish for 24 h prior to treatment with indicated concentrations of astragalus triterpenoids as indicated for another 48 h. The conditioned culture mediums were then centrifuged, 2-fold concentrated and collected for assay of collagens and MMPs secreted into the culture medium. The cells were washed and lysed in 0.2 mL of lysis buffer (1% NP-40, 50 mM Tris-HCl, pH 7.4, 180 mM NaCl, 1 mM EDTA, 1 mM PMSF, 1 mM NaF, 10 mM Na3VO4) for 30 min at 4° C. After centrifuging at 17500 g for 15 min, the supernatants of cell lysate were also collected. Protein concentration of the samples were measured using the bicinchoninic acid (BCA) protein assay kit according to the manufacturer's protocol (Pierce, Rockford, Ill., USA). Equal amount of protein samples of concentrated conditioned medium (100 μg) or cell lysate supernatants (50 μg) were mixed with an appropriate volume of 4×SDS sampling buffer and separated by 8% SDS-PAGE gel. The protein bands separated in the SDS-PAGE gel were blotted onto a polyvinylidene fluoride (PVDF) membrane. The blotted PVDF membrane was washed twice and blocked in freshly prepared Tris-buffered saline (TBS) containing 0.1% Tween-20 and 7% skim milk (TBST) for 2 h at room temperature. The PVDF membrane was then incubated with either antibodies against collagen I and III or the housekeeping protein α-tubulin (Santa Cruz Biotechnology, Santa Cruz, Calif.) for 18 h at 4° C. Horseradish peroxidase-conjugated anti-goat antibody was used as secondary antibody. Signals were visualized by an enhanced chemiluminescence kit (Clonetech, Palo Alto, Calif., USA) followed by exposure to X-ray films.
The collagen expression in the human HDF cells was also determined. […] And Collage I was over-expressed in the cells treated with various doses (1, 10, 40 μg/mL) of the crude extracts, such as butanol fraction and water insoluble fraction of Astragalus membranaceus.

`CC(=O)O[C@H]1[C@H](O[C@H]2CC[C@]34C[C@]35CC[C@]3(C)[C@@H]([C@@]6(C)CC[C@@H](C(C)(C)O)O6)[C@@H](O)C[C@@]3(C)[C@@H]5C[C@H](O[C@@H]3O[C@H](CO)[C@@H](O)[C@H](O)[C@H]3O)[C@H]4C2(C)C)OC[C@@H](O)[C@@H]1O` [AS2, astragaloside II]: the “Collagen I in cell” value runs as follows: (0.01 μM) 1.02; (0.1 μM) 0.73; (1 μM) 1.26. The “Collagen I in medium” value is reported as 1.24 (0.01 μM), 1.15 (0.1 μM) and 1.02 (1 μM).

Take `CC(=O)O[C@H]1[C@H](O[C@H]2CC[C@]34C[C@]35CC[C@]3(C)[C@@H]([C@@]6(C)CC[C@@H](C(C)(C)O)O6)[C@@H](O)C[C@@]3(C)[C@@H]5C[C@H](O[C@@H]3O[C@H](CO)[C@@H](O)[C@H](O)[C@H]3O)[C@H]4C2(C)C)OC[C@@H](OC(C)=O)[C@@H]1O` [isoAS1, isoastragaloside I]: the “Collagen I in cell” value (0.01 μM) turned out to be 0.71, the “Collagen I in cell” value (0.1 μM) is on record as 1.11 and the “Collagen I in cell” value (1 μM) is recorded as 1.27. Also, the “Collagen I in medium” value (0.01 μM) stood at 1.20, the “Collagen I in medium” value (0.1 μM) is recorded as 1.08 and the “Collagen I in medium” value (1 μM) was determined as 0.96.

For `CC(C)(O)[C@@H]1CC[C@](C)([C@H]2[C@@H](O)C[C@@]3(C)[C@@H]4C[C@H](O[C@@H]5O[C@H](CO)[C@@H](O)[C@H](O)[C@H]5O)[C@H]5C(C)(C)[C@@H](O[C@@H]6OC[C@@H](O)[C@H](O)[C@H]6O)CC[C@@]56C[C@@]46CC[C@]23C)O1` [AS4, astragaloside IV], the “Collagen I in cell” value turned out to be 1.16 (0.01 μM), 1.33 (0.1 μM) and 1.07 (1 μM). For the same molecule, the “Collagen I in medium” value is 1.24 (0.01 μM), 1.11 (0.1 μM) and 1.11 (1 μM).

As to `CC(C)(O)[C@@H]1CC[C@](C)([C@H]2[C@@H](O)C[C@@]3(C)[C@@H]4C[C@H](O[C@@H]5O[C@H](CO)[C@@H](O)[C@H](O)[C@H]5O)[C@H]5C(C)(C)[C@@H](O[C@@H]6OC[C@@H](O)[C@H](O)[C@H]6O[C@@H]6O[C@H](CO)[C@@H](O)[C@H](O)[C@H]6O)CC[C@@]56C[C@@]46CC[C@]23C)O1` [AS6, astragaloside VI], the “Collagen I in cell” value came out at 1.18 (0.01 μM), 1.41 (0.1 μM) and 1.30 (1 μM). Besides, the “Collagen I in medium” value is 1.19 (0.01 μM), 1.29 (0.1 μM) and 1.25 (1 μM).
